Bounds are passed on as bounds.

This test addresses Mouse ERK2 protein (Mus musculus (Mouse), UniProt P63085). Put plainly: Coupled MEK1/ERK2 IMAP assay or Active ERK2 IMAP assay. The format is biochemical. The note with it: Table 1, class symbols, 30 μM ATP.

Mouse ERK2 protein, sequence (P63085 whole entry): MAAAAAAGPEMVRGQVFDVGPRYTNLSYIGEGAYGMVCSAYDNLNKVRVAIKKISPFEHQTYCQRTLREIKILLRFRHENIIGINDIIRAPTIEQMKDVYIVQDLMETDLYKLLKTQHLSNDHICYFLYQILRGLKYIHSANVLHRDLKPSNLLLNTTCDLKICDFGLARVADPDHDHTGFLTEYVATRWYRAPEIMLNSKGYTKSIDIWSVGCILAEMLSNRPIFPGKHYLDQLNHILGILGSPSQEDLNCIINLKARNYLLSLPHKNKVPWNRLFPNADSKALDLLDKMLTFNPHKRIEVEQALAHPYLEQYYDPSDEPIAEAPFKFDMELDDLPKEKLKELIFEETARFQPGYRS

`Cc1nc2cc(-c3n[nH]c4c3CN(C(=O)N[C@@H]3CCCN(Cc5ccnc6ccccc56)C3)CC4)ccc2o1` [Compound 144, 1,4,6,7-tetrahydro-3-(2-methyl-5-benzoxazolyl)-N-[1-(4-quinolinylmethyl)-3(R)-piperidinyl]-5H-pyrazolo[4,3-c]pyridine-5-carboxamide]: the IC50 was in the range of 101 to 1000 nM.

As for `Cc1nc2cc(-c3n[nH]c4c3CN(C(=O)N[C@@H]3CCCN(Cc5cccc6ncccc56)C3)CC4)ccc2o1` [Compound 146, 1,4,6,7-tetrahydro-3-(2-methyl-5-benzoxazolyl)-N-[1-(5-quinolinylmethyl)-3(R)-piperidinyl]-5H-pyrazolo[4,3-c]pyridine-5-carboxamide], the IC50 fell in the range of 21 to 100 nM.

`Cc1nc2cc(-c3n[nH]c4c3CN(C(=O)N[C@@H]3CCCN(Cc5cn(C)c6ccccc56)C3)CC4)ccc2o1` [Compound 148, 1,4,6,7-tetrahydro-3-(2-methyl-5-benzoxazolyl)-N-[1-[(1-methyl-1H-indol-3-yl)methyl]-3(R)-piperidinyl]-5H-pyrazolo[4,3-c]pyridine-5-carboxamide] yielded an IC50 of 21 to 100 nM.

`COc1cccc(F)c1CN1CCC(F)C(NC(=O)N2CCc3[nH]nc(-c4ccc5nccn5c4)c3C2)C1` (stereo not drawn) [Compound 150, N-[4-fluoro-1-[(2-fluoro-6-methoxyphenyl)methyl]-3-piperidinyl]-1,4,6,7-tetrahydro-3-imidazo[1,2-a]pyridin-6-yl-5H-pyrazolo[4,3-c]pyridine-5-carboxamide] registered an IC50 below 20 nM.

Turning to `Cc1nc2cc(-c3n[nH]c4c3CN(C(=O)N[C@@H]3CCCN(Cc5csc6ccccc56)C3)CC4)ccc2o1` [Compound 152, N-[1-(benzo[b]thien-3-ylmethyl)-3(R)-piperidinyl]-1,4,6,7-tetrahydro-3-(2-methyl-5-benzoxazolyl)-5H-pyrazolo[4,3-c]pyridine-5-carboxamide], the IC50 is below 20 nM.

Molecule `Cc1nc2cc(-c3n[nH]c4c3CN(C(=O)N[C@@H]3CCCN(Cc5ccc6ccccc6c5)C3)CC4)ccc2o1` [Compound 154, 1,4,6,7-tetrahydro-3-(2-methyl-5-benzoxazolyl)-N-[1-(2-naphthalenylmethyl)-3(R)-piperidinyl]-5H-pyrazolo[4,3-c]pyridine-5-carboxamide] came in with a 50% inhibitory concentration (IC50) below 20 nM.

Molecule `COc1cccc(F)c1CN1[C@H]2CC[C@H](NC(=O)N3CCc4[nH]nc(-c5ccnc(C)c5)c4C3)[C@@H]1CC2` [Compound 160, N-[endo-8-[(2-fluoro-6-methoxyphenyl)methyl]-8-azabicyclo[3.2.1]oct-2-yl]-1,4,6,7-tetrahydro-3-(2-methyl-4-pyridinyl)-5H-pyrazolo[4,3-c]pyridine-5-carboxamide] displayed a concentration for half-maximal inhibition (IC50) of 101 to 1000 nM.

For the molecule `COc1cccc(F)c1CN1[C@H]2CC[C@@H](NC(=O)N3CCc4[nH]nc(-c5ccnc(C)c5)c4C3)[C@@H]1CC2` [Compound 162, N-[exo-8-[(2-fluoro-6-methoxyphenyl)methyl]-8-azabicyclo[3.2.1]oct-2-yl]-1,4,6,7-tetrahydro-3-(2-methyl-4-pyridinyl)-5H-pyrazolo[4,3-c]pyridine-5-carboxamide], the IC50 fell in the range of 21 to 100 nM.

With `Cc1cc(-c2n[nH]c3c2CN(C(=O)N[C@H]2CC[C@H]4CC[C@@H]2N4Cc2c(F)cccc2F)CC3)ccn1` [Compound 164, N-[endo-8-[(2,6-difluorophenyl)methyl]-8-azabicyclo[3.2.1]oct-2-yl]-1,4,6,7-tetrahydro-3-(2-methyl-4-pyridinyl)-5H-pyrazolo[4,3-c]pyridine-5-carboxamide], the IC50 lay in the range of 101 to 1000 nM.

As to `Cc1cc(-c2n[nH]c3c2CN(C(=O)N[C@H]2CC[C@H]4CC[C@@H]2N4Cc2ccccc2F)CC3)ccn1` [Compound 166, N-[endo-8-[(2-fluorophenyl)methyl]-8-azabicyclo[3.2.1]oct-2-yl]-1,4,6,7-tetrahydro-3-(2-methyl-4-pyridinyl)-5H-pyrazolo[4,3-c]pyridine-5-carboxamide], the IC50 was in the range of 101 to 1000 nM.

Turning to `Cc1cc(-c2n[nH]c3c2CN(C(=O)N[C@@H]2CC[C@H]4CC[C@@H]2N4Cc2ccccc2F)CC3)ccn1` [Compound 168, N-[exo-8-[(2-fluorophenyl)methyl]-8-azabicyclo[3.2.1]oct-2-yl]-1,4,6,7-tetrahydro-3-(2-methyl-4-pyridinyl)-5H-pyrazolo[4,3-c]pyridine-5-carboxamide], the IC50 is below 20 nM.

Take `COc1cccc(F)c1CN1CCC[C@@H](NC(=O)N2CCc3[nH]nc(-c4ccc5nc(C)sc5c4)c3C2)C1` [Compound 170, N-[1-[(2-fluoro-6-methoxyphenyl)methyl]-3(R)-piperidinyl]-1,4,6,7-tetrahydro-3-(2-methyl-6-benzothiazolyl)-5H-pyrazolo[4,3-c]pyridine-5-carboxamide]: the IC50 is below 20 nM.

In the case of `Cc1nc2ccc(-c3n[nH]c4c3CN(C(=O)N[C@@H]3CCCN(Cc5c(F)cccc5F)C3)CC4)cc2s1` [Compound 172, N-[1-[(2,6-difluorophenyl)methyl]-3(R)-piperidinyl]-1,4,6,7-tetrahydro-3-(2-methyl-6-benzothiazolyl)-5H-pyrazolo[4,3-c]pyridine-5-carboxamide], the IC50 was below 20 nM.

Consider `O=C(N[C@@H]1CCCN(CCc2ccccc2)C1)N1CCc2[nH]nc(-c3ccncc3)c2C1` [Compound 173, 1,4,6,7-tetrahydro-N-[1-(2-phenylethyl)-3(R)-piperidinyl]-3-(4-pyridinyl)-5H-pyrazolo[4,3-c]pyridine-5-carboxamide], for which the IC50 lay in the range of 21 to 100 nM.

`Cc1nc2ccc(-c3n[nH]c4c3CN(C(=O)N[C@@H]3CCCN(Cc5csc6ccccc56)C3)CC4)cc2s1` [Compound 174, N-[1-(benzo[b]thien-3-ylmethyl)-3(R)-piperidinyl]-1,4,6,7-tetrahydro-3-(2-methyl-6-benzothiazolyl)-5H-pyrazolo[4,3-c]pyridine-5-carboxamide] showed an IC50 below 20 nM.

In turn, `Cc1nc2ccc(-c3n[nH]c4c3CN(C(=O)N[C@@H]3CCCN(Cc5coc6ccccc56)C3)CC4)cc2s1` [Compound 176, N-[1-(3-benzofuranylmethyl)-3(R)-piperidinyl]-1,4,6,7-tetrahydro-3-(2-methyl-6-benzothiazolyl)-5H-pyrazolo[4,3-c]pyridine-5-carboxamide] gave an IC50 below 20 nM.

`O=C(N[C@@H]1CCCN(Cc2ccccc2)C1)N1CCc2[nH]nc(-c3ccc4c(c3)CCO4)c2C1` [Compound 177, 3-(2,3-dihydro-5-benzofuranyl)-1,4,6,7-tetrahydro-N-[1-(phenylmethyl)-3(R)-piperidinyl]-5H-pyrazolo[4,3-c]pyridine-5-carboxamide] yielded an IC50 below 20 nM.

The molecule `Cc1cc(-c2n[nH]c3c2CN(C(=O)N[C@@H]2CC[C@H]4CC[C@@H]2N4Cc2c(F)cccc2F)CC3)ccn1` [Compound 178, N-[exo-8-[(2,6-difluorophenyl)methyl]-8-azabicyclo[3.2.1]oct-2-yl]-1,4,6,7-tetrahydro-3-(2-methyl-4-pyridinyl)-5H-pyrazolo[4,3-c]pyridine-5-carboxamide] registered a concentration for half-maximal inhibition (IC50) below 20 nM.

Take `O=C(N[C@@H]1CCCN(Cc2c(F)cccc2F)C1)N1CCc2[nH]nc(-c3ccc4c(c3)CCO4)c2C1` [Compound 179, N[1-[(2,6-difluorophenyl)methyl]-3(R)-piperidinyl]-3-(2,3-dihydro-5-benzofuranyl)-1,4,6,7-tetrahydro-5H-pyrazolo[4,3-c]pyridine-5-carboxamide]: the IC50 fell in the range of 21 to 100 nM.

In the case of `Cc1cc(-c2n[nH]c3c2CN(C(=O)N[C@H]2CN(Cc4c(F)cccc4F)CC(F)(F)C2)CC3)ccn1` [Compound 180, N-[1-[(2,6-difluorophenyl)methyl]-5,5-difluoro-3(R)-piperidinyl]-1,4,6,7-tetrahydro-3-(2-methyl-4-pyridinyl)-5H-pyrazolo[4,3-c]pyridine-5-carboxamide], the IC50 was 21 to 100 nM.

In the case of `COc1cccc(F)c1CN1CCC[C@@H](NC(=O)N2CCc3[nH]nc(-c4ccc5c(c4)CCO5)c3C2)C1` [Compound 181, (R)-3-(2,3-dihydrobenzofuran-5-yl)-N-(1-(2-fluoro-6-methoxybenzyl)piperidin-3-yl)-6,7-dihydro-1H-pyrazolo[4,3-c]pyridine-5(4H)-carboxamide], the IC50 was below 20 nM.

For `O=C(N[C@@H]1CCCN(Cc2csc3ccccc23)C1)N1CCc2[nH]nc(-c3ccc4c(c3)CCO4)c2C1` [Compound 183, N-[1-(benzo[b]thien-3-ylmethyl)-3(R)-piperidinyl]-3-(2,3-dihydro-5-benzofuranyl)-1,4,6,7-tetrahydro-5H-pyrazolo[4,3-c]pyridine-5-carboxamide], the concentration for half-maximal inhibition (IC50) was below 20 nM.

`Cc1nc2cc(-c3n[nH]c4c3CN(C(=O)N[C@@H]3CCCN(Cc5c(C)cccc5C)C3)CC4)ccc2s1` [Compound 184, N-[1-[(2,6-dimethylphenyl)methyl]-3(R)-piperidinyl]-1,4,6,7-tetrahydro-3-(2-methyl-5-benzothiazolyl)-5H-pyrazolo[4,3-c]pyridine-5-carboxamide]: the concentration for half-maximal inhibition (IC50) fell in the range of 21 to 100 nM.

Consider `Cc1nc2ccc(-c3n[nH]c4c3CN(C(=O)N[C@@H]3CCCN(Cc5ccccc5)C3)CC4)cc2o1` [Compound 185, 1,4,6,7-tetrahydro-3-(2-methyl-6-benzoxazolyl)-N-[1-(phenylmethyl)-3(R)-piperidinyl]-5H-pyrazolo[4,3-c]pyridine-5-carboxamide], for which the 50% inhibitory concentration (IC50) was in the range of 21 to 100 nM.

`COc1cccc(F)c1CN1CCC[C@@H](NC(=O)N2CCc3[nH]nc(-c4ccc5sc(C)nc5c4)c3C2)C1` [Compound 186, (R)-N-(1-(2-fluoro-6-methoxybenzyl)piperidin-3-yl)-3-(2-methylbenzo[d]thiazol-5-yl)-6,7-dihydro-1H-pyrazolo[4,3-c]pyridine-5(4H)-carboxamide] had an IC50 of 21 to 100 nM.

Molecule `Cc1nc2ccc(-c3n[nH]c4c3CN(C(=O)N[C@@H]3CCCN(Cc5c(F)cccc5F)C3)CC4)cc2o1` [Compound 187, N-[1-[(2,6-difluorophenyl)methyl]-3(R)-piperidinyl]-1,4,6,7-tetrahydro-3-(2-methyl-6-benzoxazolyl)-5H-pyrazolo[4,3-c]pyridine-5-carboxamide] registered an IC50 of 101 to 1000 nM.

`Cc1nc2cc(-c3n[nH]c4c3CN(C(=O)N[C@@H]3CCCN(Cc5c(F)cccc5F)C3)CC4)ccc2s1` [Compound 188, N-[1-[(2,6-difluorophenyl)methyl]-3(R)-piperidinyl]-1,4,6,7-tetrahydro-3-(2-methyl-5-benzothiazolyl)-5H-pyrazolo[4,3-c]pyridine-5-carboxamide] had an IC50 of 101 to 1000 nM.

As a reminder, the IC50 is the concentration needed to halve the response being measured.

For the origin of these results see patent US9242981B2, “Fused pyrazole derivatives as novel ERK inhibitors” (Merck Sharp & Dohme Corp., priority 2010, dated 2016).
